From patent US8470352B2, “Magnesium compositions and uses thereof for metabolic disorders” (Magceutics, Inc., priority 2007, dated 2013)

Experiments:
[1] = Magnesium absorption rate in rats (urine and feces magnesium by ICP-AES, linear regression); settings: Examples 5 and 6, gluconate in skim milk or 5 weight percent lactose water, chloride and threonate in water; for magnesium absorption rate at higher dosage: high magnesium dosage
Experimental: Fifty 3-month old, male Sprague Dawley (SD) rats were divided into five groups of ten rats. Rats of this age and older are considered adult. Each of the rats was placed in a separate metabolic cage equipped with urine- and feces-collecting wells. All of the rats were maintained in a temperature-controlled room (22° C. to 25° C.) with a dark period from 08:00 pm to 08:00 am daily. From day 1 through day 3, each rat was fed daily 15 g of magnesium-free food and de-ionized water. […] The medium was skim milk for Composition 1 and Group 1, milk prepared from powdered milk, by diluting the powdered milk with water to obtain a composition like that of skim milk, for Composition 2 and Group 2, 1% milk cream in water for Composition 3 and Group 3, water comprising 5 weight percent lactose for Composition 4 and Group 4, and water for the Control Composition and Control Group. […] From day 11 through day 12, each rat was fed daily 15 g of magnesium-free food and de-ionized water.
From day 4 through day 10, urine from each rat was collected daily. The collected urine from each rat was then pooled together and the total volume of the pooled urine from each rat was recorded. The pooled urine from each rat, in an amount of […], was analyzed for magnesium content using an inductively coupled plasma-atomic emission spectrometer (ICP-AES). From day 5 to day 11, feces from each rat were collected daily. The collected feces from each rat were pooled together and the pooled feces were weighed and homogenized. The pooled feces from each rat, in an amount of 0.5 g, were analyzed for magnesium content using an ICP-AES.
A formula was used to calculate a magnesium absorption rate for each rat. The formula used was Y=AX−B, wherein X was the average total daily magnesium intake, Y was the average net daily amount of magnesium absorbed, as calculated by X minus the average daily amount of magnesium excreted from feces, B was the average daily amount of magnesium excreted from feces when the magnesium intake was zero, and the slope A represented the magnesium absorption rate. […]

[2] = tested on: rats (young, aging, aged); settings: p<0.05
Experimental: Twenty 2-month old, male Sprague Dawley (SD) rats were housed in a temperature-controlled room (22° C. to 25° C.) with a dark period from 08:00 pm to 08:00 am daily. […] Over 7 days before the training and trial period began, each rat was handled and habituated to the maze and to Kellogg's Froot Loop cereal.
Each rat underwent a test of one trial, followed by an interval of 10-minutes, followed by another trial, and so on, for a total of 6 trials in one day. In each trial, each rat went through a sample run in the maze, followed by an interval of 15 seconds, followed by a choice run in the maze. […]
On the first day (designated day 0) of the feeding of the two groups, as just described, each rat underwent a preliminary test of one trial, followed by an interval of 10 minutes, followed by another trial, and so on, for a total of 4 trials in one day. […] In this preliminary test, the choice accuracy level, or ratio of correct choices made, co, to the number of number of trials in the test, no, was determined for each rat. […]
Three groups of animals (young, aging, and magnesium-treated aging rats) were used. […] Spatial working memory was assessed using a T-maze non-matching-to-place task. […] Spatial working memory was first assessed on an elevated T-maze. […]

[3] = tested on: rats (young, aging); assay: Novel object recognition test in rats; assay type: in vivo, Sprague-Dawley rats
Experimental: In this example, the effect of magnesium supplementation on recognition memory was tested. Three groups of rats were used in these experiments: 1) young rats (three months old); aging rats (12-14 months old), and; 3) magnesium-treated aging rats (12-14 months old, diet supplemented with 6 mg/kg MgCl2 from 8 months of age). We used experimentally naive, female, Sprague-Dawley young […], aging (12-14 month old) and […] rats (Charles River) at the beginning of the behavior experiments. They were housed two per cage with continuous access to food and water under a 12:12 light-dark cycle, with light onset at 8:00 a.m. […] All experiments involving animals were approved by the Massachusetts Institute of Technology's and Tsinghua University Committees on Animal Care.
The three groups of rats were tested for recognition memory using an object recognition test with a single exposure to the object during training. The task is based on the natural tendency of rodents to explore new objects and tests the animals' memory capacity for distinguishing novel versus familiar objects.
Briefly, the rats were first individually habituated to the personnel and then to open-field arena during 2 weeks. […] The retention intervals were 10 min and 24 hours. Objects were cleaned thoroughly between trials with 20% ethanol solution to ensure the absence of olfactory cues. The particular objects for a given trial were randomly determined, but each object was used for only one trial per rat. Memory of the familiar object is associated with increased exploration of the new object and an exploration index (% correct) is calculated as new object inspection time/30.
In this example, the effect of magnesium supplementation on memory consolidation was studied. […]
Briefly, the rats were first individually habituated to the personnel and then to open-field arena during 2 weeks. […] The particular objects for a given trial were randomly determined, but each object was used for only one trial per rat. […]

[4] = tested on: mice genetically altered to present symptoms of Alzheimer's disease (AD); assay: Modified Morris water maze test in AD mice; assay type: in vivo; settings: AD mice aged 13 months; FIG. 16 panels A and B
Experimental: Another group, the control group, of 10 mice that were genetically altered to present symptoms of AD were fed a Control Diet, a diet of normal solid food and water, for 30 days.
The pool used was a pool of water in a circular metal tank (150 cm in diameter and 50 cm in depth) having a water height of 30 cm and a water temperature that was maintained at ˜22° C. The pool was placed in a moderately lit area and surrounded by a black curtain. An acrylic platform (15 cm in diameter) was placed 2 cm below the surface of the water in the middle of one quadrant of the pool, equidistant from the center and the edge of the pool. Outside the pool, a cue was placed so as to be visible to a mouse in the maze, allowing a mouse to use it as a landmark for spatial orientation. The cue remained unchanged throughout the test period.
On the first day of the training and testing period, the water in the pool was transparent, such that the platform was visible. Each mouse was trained to swim towards the platform and to stand on the platform so as not to be submerged in the pool. […] The amount of time the mouse took to find the platform, referred to as “escape latency,” was recorded for each trial.
On the second day of the training and testing period, a small quantity of milk was added to the water in the pool, such that the pool was opaque and the platform was no longer visible. […]

[5] = tested on: young (9-month old) and aged (25-month old) rats; settings: food containing 2% magnesium oxide for 8 days; gain transient; cited from earlier work
[6] = in vivo; cited from earlier work
[7] = tested on: diabetic patients; settings: nearly 1 g of magnesium daily for 1 month; cited from earlier work

With magnesium gluconate the “magnesium absorption rate at higher dosage” value [1] was “suitably close to those associated with the lower dosage compositions”.
In the case of `[Cl-].[Cl-].[Mg+2]` [magnesium chloride], the “learning in T-maze non-matching-to-place task, 15 sec delay” value ([2]; 6 mg/kg MgCl2, FIG. 10 left panel) is reported as “performed significantly better from their first trials”, the “spatial working memory at 2 and 5 min delays” value ([2]; 6 mg/kg MgCl2, FIG. 10 right panel) is reported as “significantly enhanced the performance of the aging rats” and the “novel object exploration preference, 10 minute retention interval” value ([3]; aging rats (12-14 months old), diet supplemented with 6 mg/kg MgCl2 from 8 months of age, single training, FIG. 8, P<0.0001) is reported as “preferentially explored the novel object to the same extent as young rats”. For the same molecule, the “novel object discrimination after 24 hours” value ([3]; aging rats, 6 mg/kg MgCl2, single training) was “lose there ability to distinguish novel versus familiar objects”, the “preference for the novel object, 24-hour retention interval after spaced training” value ([3]; aging rats, 6 mg/kg MgCl2, two training sessions, FIG. 9) was “retained a high level of preference” and the “magnesium absorption rate at higher dosage” value [1] was “less desirable”. For the same molecule, the “magnesium absorption rate at relatively low dosage” value ([1]; low magnesium dosage) was “suitable, but lower”.
In the case of `CC12CC3CC(C)(C1)CC(N)(C3)C2` [memantine], the “reduction of the effects of AD on learning capacity, comparison of anti-AD drugs” value [4] is reported as “better at reducing the effects of AD on learning capacity than aricept”.
In the case of `[O]=[Mg]` [magnesium oxide], the cognitive function [5] is given as “some sign of improvement”, the “magnesium bioavailability, or absorption rate in the human body” value [6] is given as “very low” and the metabolic control [7] is given as “only minor improvement”.
